Values quoted from earlier work as cited in patent US20230414692A1, “ETHANOLIC EXTRACT OF SEEDS OF SOLANUM MELONGENA, METHOD FOR OBTAINING IT, PHARMACEUTICAL COMPOSITION CONTAINING IT AND USE THEREOF AS AN ANTITUMOUR AGENT” (UNIVERSIDAD DE GRANADA, priority 2020, published 2023).

Assays:
[1] = tested on: NIE.115 neuroblastoma cell line; conditions: Cohen et al., 1996
[2] = tested on: 143B.TK osteosarcoma cell line; conditions: Cohen et al., 1996

For `C/C=C(/C)C(=O)O[C@H]1C[C@@H](OC(C)=O)[C@@]2(C)CO[C@H]3[C@H]4O[C@@H]5C[C@@H](c6ccoc6)C(C)=C5[C@@]4(C)[C@H](CC(=O)OC)[C@]1(C)[C@@H]32` [Salannin], the IC50 [1] is given as 133 ± 6 µM and the IC50 [2] is given as 89 ± 12 µM.
